In patent publication US12552767B2, “3-heteroaryl pyrrolidine and piperidine orexin receptor agonists” (Merck Sharp & Dohme LLC, priority 2020, dated 2026):

Target: T1, human OX2R (Homo sapiens, UniProt O43614)
T1 construct: expressed in transfected cells; host or cells: CHO (Chinese hamster ovary) cells, grown under G418 selection
T1 sequence (O43614 1-444): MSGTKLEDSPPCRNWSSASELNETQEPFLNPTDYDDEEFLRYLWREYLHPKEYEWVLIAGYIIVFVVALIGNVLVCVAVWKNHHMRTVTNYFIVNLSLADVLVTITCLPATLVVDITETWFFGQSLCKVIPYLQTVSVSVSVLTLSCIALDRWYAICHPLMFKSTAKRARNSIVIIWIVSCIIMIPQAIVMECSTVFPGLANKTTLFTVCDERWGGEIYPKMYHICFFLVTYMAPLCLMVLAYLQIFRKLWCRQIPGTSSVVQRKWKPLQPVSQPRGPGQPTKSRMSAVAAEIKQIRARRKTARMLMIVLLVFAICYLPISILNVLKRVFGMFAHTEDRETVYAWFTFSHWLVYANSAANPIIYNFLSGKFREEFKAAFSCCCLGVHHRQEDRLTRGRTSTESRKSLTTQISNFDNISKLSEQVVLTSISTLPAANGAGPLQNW
Assay: IP-One (IPOne) orexin receptor agonist assay in CHO cells expressing human OX2R
Assay type: cell-based
Conditions: for EC50: CHO cells expressing human OX2R, IP-One IP-1 detection, 2 hours incubation, four parameter logistic fit, read-out: OX2R Potency, EC50; for % of reference agonist maximal effect: human OX2R, percentage of sample raw value/mean max effect (reference compound at 1 uM with 100% activity)
Text: The utility of the compounds in accordance with the present invention as orexin receptor OX1R and/or OX2R agonists may be readily determined without undue experimentation by methodology well known in the art. Both the OX1R and/or OX2R G-coupled protein receptors (GPCRs) couple through the Gαq signaling pathway, which ultimately promotes calcium mobilization via inositol triphosphate (IP3) production. The half-life of IP-3 is relatively short, being rapidly metabolized to inositol monophosphate (IP-1), which can be readily detected using a commercially available assay kit (IP-One; Cisbio; cat #621PAPEC) coupled with a cell line expressing the target receptor(s) of interest. The utility of the compounds in accordance with the present invention as orexin receptor OX1R and/or OX2R agonists may be determined utilizing this assay.
In a typical experiment, the OX1 and OX2 receptor agonist activity is determined in accordance with the following general experimental method. Chinese hamster ovary (CHO) cells expressing human OX1R and/or the human OX2R were grown in Iscove's modified DMEM containing glutaMAX™, 1% G418, 100 U/mL penicillin, 100 μg/mL streptomycin and 10% heat-inactivated qualified fetal bovine serum (FBS). The OX2R cells were seeded at 10,000 cells/well/50 μL and the OX1R cells were seeded at 20,000 cells/well/50 μL into 384-well white tissue culture plates (Greiner; cat #781080). All cell/media reagents were from GIBCO-Invitrogen Corp. The seeded cell plate(s) were incubated at 37° C. with 5% CO2 and 85% humidity for 20-24 hours. On the day of the assay, assay-ready compound plates were prepared using an acoustic liquid handler (ECHO; Labcyte), which dispensed sufficient volume of test compound stock (10 mM in DMSO) or 100% DMSO to prepare 10 point, ½-log dilutions in a final volume of 202.5 nL/well in all test wells of a 384-well diamond plate (Labcyte). Following completion of assay-ready plates, importantly, the next three steps were performed with minimal delay: 1) 20 μl of 1× stimulation buffer was added to the compound plate using a Multidrop Combi (small cassette, Thermo Fisher Scientific cat #24073290); 2) culture medium was removed from the cell plate using the Bluewasher plate washer (gentle spin; BlueCatBio); 3) 14 μl of compound/stimulation buffer mixture was added to the cell plate using a Bravo liquid handler (Agilent) prior to incubating cell plates at 37° C. with 5% CO2 and 85% humidity for 1 or 2 hours (OX1R and OX2R, respectively). During this incubation, IP-one detection reagents were prepared (38:1:1 lysis buffer:D2:AB-cryptate reagents). Six μL of mixed detection reagents were added to the cell plate using a Multidrop Combi (small cassette, Thermo Fisher Scientific cat #24073290) and incubated 60 minutes at room temperature in the dark. Fluorescence signal was detected using an Envision plate reader (Perkin Elmer) [LANCE/DELFIA Dual Enh (Em: APC 665; Ex: Cy5 620)].
For each compound, data were fit to a four parameter logistic fit (ActivityBase software) and the EC50 was reported as the inflection point of the resulting curve. Percent effect for each test compound was determined as the percentage of sample raw value/mean max effect, where the mean max effect was derived from the mean raw value of 32 control wells per assay plate (using Orexin A (cat #003-30) at 1 μM for human OX1R and a reference compound at 1 uM with 100% activity previously established by comparison to Orexin A for human OX2R). The intrinsic orexin receptor agonist activity of a compound which may be used in the present invention may be determined by these assays.

Row | Compound | EC50 [µM] | % of reference agonist maximal effect [%]
1 | CCNC(=O)N1CCC[C@H](c2ccn(C)n2)[C@@H]1CO[C@H]1CC[C@@H](c2ccccc2)CC1 (relative stereo) [Example 27, (CIS)-N-ethyl-3-(1-methyl-1H-pyrazol-3-yl)-2-((((CIS)-4-phenylcyclohexyl)oxy)-methyl)piperidine-1-carboxamide] | 3.51 | 82.5
2 | CCNC(=O)N1CC[C@H](c2cc[nH]n2)[C@@H]1CO[C@H]1CC[C@@H](c2ccccc2)CC1 (relative stereo) [Example 28, (CIS)-N-ethyl-2-((((CIS)-4-phenylcyclohexyl)ox)methyl)-3-(1H-pyrazol-3-yl)pyrrolidine-1-carboxamide] | 5.96 | 22.9
3 | O=C(OCCF)N1CCCC(c2ccn[nH]2)C1CO[C@H]1CC[C@@H](c2c(F)ccc(F)c2F)CC1 (relative stereo) [Example 30, 2-Fluoroethyl 3-(1H-pyrazol-5-yl)-2-((((CIS)-4-(2,3,6-trifluorophenyl)cyclohexyl)oxy)methyl)-piperidine-1-carboxylate] | 2.92 | 87.6
4 | O=C(OCC(F)(F)F)N1CCCC(c2ccn[nH]2)C1CO[C@H]1CC[C@@H](c2c(F)ccc(F)c2F)CC1 (relative stereo) [Example 31, 2,2,2-Trifluoroethyl 3-(1H-pyrazol-5-yl)-2-((((CIS)-4-(2,3,6-trifluorophenyl)cyclohexyl)-oxy)methyl)piperidine-1-carboxylate] | 7.44 | 72.7
5 | O=C(CO)N1CCCC(c2ccn[nH]2)C1CO[C@H]1CC[C@@H](c2c(F)ccc(F)c2F)CC1 (relative stereo) [Example 32, 1-(3-(1H-Pyrazol-5-yl)-2-((((CIS)-4-(2,3,6-trifluorophenyl)cyclohexyl)oxy)methyl)piperidin-1-yl)-2-hydroxyethan-1-one] | 3.73 | 86.3
6 | COC(=O)N1CCC[C@H](c2cccc(O)n2)[C@@H]1CO[C@H]1CC[C@@H](c2ccccc2)CC1 (relative stereo) [Example 64, Methyl (CIS)-3-(6-hydroxypyridin-2-yl)-2-((((CIS)-4-phenylcyclohexyl)oxy)methyl)piperidine-1-carboxylate] | 3.06 | 68.1
7 | CC(C)C(=O)N1CCC[C@H](c2cc[nH]n2)[C@@H]1CO[C@H]1CC[C@@H](C(C)C)CC1 (relative stereo) [Example 73, 1-((CIS)-2-((((CIS)-4-isopropylcyclohexyl)oxy)methyl)-3-(1H-pyrazol-3-yl)piperidin-1-yl)-2-methylpropan-1-one] | 3.22 | 79.3
8 | O=C(CC1COC1)N1CCC[C@H](c2cc[nH]n2)[C@@H]1CO[C@H]1CC[C@@H](c2ccccc2)CC1 (relative stereo) [Example 74, 2-(oxetan-3-yl)-1-((CIS)-2-((((CIS)-4-phenylcyclohexyl)oxy)methyl)-3-(1H-pyrazol-3-yl)piperidin-1-yl)ethan-1-one] | 3.28 | 94.3
9 | CC(C)[C@H]1CC[C@@H](OC[C@H]2[C@@H](c3cc[nH]n3)CCCN2C(=O)C2CC2)CC1 (relative stereo) [Example 75, cyclopropyl((CIS)-2-((((CIS)-4-isopropylcyclohexyl)oxy)methyl)-3-(1H-pyrazol-3-yl)piperidin-1-yl)methanone] | 3.63 | 95.7
10 | CC1CC1C(=O)N1CCC[C@H](c2cc[nH]n2)[C@@H]1CO[C@H]1CC[C@@H](C(C)C)CC1 (relative stereo) [Example 76, ((CIS)-2-((((CIS)-4-isopropylcyclohexyl)oxy)methyl)-3-(1H-pyrazol-3-yl)piperidin-1-yl)(2-methylcyclopropyl)methanone] | 4.13 | 94.6

The next molecules have a lower EC50 than those just listed; values first:

Row | EC50 [µM] | % of reference agonist maximal effect [%] | Compound
11 | 2.43 | 83.6 | COC(=O)N1CCC[C@H](c2ncn[nH]2)[C@@H]1CO[C@H]1CC[C@@H](c2ccccc2)CC1 (relative stereo) [Example 26, methyl (CIS)-2-((((CIS)-4-phenylcyclohexyl)oxy)methyl)-3-(1H-1,2,4-triazol-5-yl)piperidine-1-carboxylate]
12 | 0.879 | 92.8 | COC(=O)N1CCC[C@H](c2[nH]ncc2C(F)(F)F)[C@@H]1CO[C@H]1CC[C@@H](c2ccccc2)CC1 (relative stereo) [Example 25, methyl (CIS)-2-((((CIS)-4-phenylcyclohexyl)oxy)methyl)-3-(4-(trifluoromethyl)-1H-pyrazol-5-yl)piperidine-1-carboxylate]
13 | 0.808 | 98.8 | COC(=O)N1CCC[C@H](c2nc(O)ccc2C)[C@@H]1CO[C@H]1CC[C@@H](c2ccccc2)CC1 (relative stereo) [Example 66, methyl (CIS)-3-(6-hydroxy-3-methylpyridin-2-yl)-2-((((CIS)-4-phenylcyclohexyl)oxy)methyl)piperidine-1-carboxylate]
14 | 0.351 | 99.6 | COCc1c[nH]nc1[C@H]1CCCN(C(=O)OC)[C@H]1CO[C@H]1CC[C@@H](c2ccccc2)CC1 (relative stereo) [Example 57, Methyl cis-3-(4-(methoxymethyl)-1H-pyrazol-3-yl)-2-((((CIS)-4-phenylcyclohexyl)oxy)methyl)-piperidine-1-carboxylate]
15 | 0.348 | 100.4 | Cc1cn[nH]c1[C@H]1CCCN(C(=O)OCC(F)F)[C@H]1CO[C@H]1CC[C@@H](c2ccccc2)CC1 (relative stereo) [Example 24, 2,2-difluoroethyl (CIS)-3-(4-methyl-1H-pyrazol-5-yl)-2-((((CIS)-4-phenylcyclohexyl)oxy)methyl)piperidine-1-carboxylate]
16 | 0.292 | 100.0 | C[C@@H]1C[C@H]1C(=O)N1CCC[C@H](c2cc[nH]n2)[C@@H]1CO[C@H]1CC[C@@H](c2ccccc2)CC1 (relative stereo) [Example 70, ((TRANS)-2-methylcyclopropyl)((CIS)-2-((((CIS)-4-phenylcyclohexyl)oxy)methyl)-3-(1H-pyrazol-3-yl)piperidin-1-yl)methanone]
17 | 0.174 | 98.1 | COC(=O)N1CCC[C@@H](c2csc(O)n2)[C@H]1CO[C@H]1CC[C@@H](c2ccccc2)CC1 (relative stereo) [Example 65]
18 | 0.0412 | 100.8 | COC(=O)N1CCC[C@H](c2n[nH]cc2I)[C@@H]1CO[C@H]1CC[C@@H](c2ccccc2)CC1 (relative stereo) [Example 42, Methyl cis-3-(4-iodo-1H-pyrazol-3-yl)-2-((((CIS)-4-phenylcyclohexyl)oxy)methyl)piperidine-1-carboxylate]
